Measurements published in patent US20030125569A1, “Use of packing strip as a holographic data carrier” (priority 2002, published 2003).

What was measured:
[1] = Estimated water content of crystalline forms after exposure to an atmosphere of defined relative humidity; assay type: physicochemical; settings: (3R,5S)-enantiomer; form obtained from Form E by exposure to defined relative humidity (A: 0 to 20%; B1/B2: 20 to 55%; C: 75%; D: 90%); monosodium salt
Description: The preparation of crystalline polymorphic Forms A, B1, B2, C and D is usually carried out by using Form E as the starting compound and by exposing Form E to an atmosphere having a defined relative humidity. Depending on the relative humidity used the different forms can be obtained.
Form E of Fluvastatin sodium ((3R,5S)-enantiomer) is first exposed to an atmosphere having a relative humidity of 90% for about 4 hours and subsequently to an atmosphere of 0 to 20% for about 90 minutes. This treatment leads to Form A of the (3R,5S)-enantiomer with an estimated water content of 0 to 5%. The above treatment can be carried out in an X-ray diffractometer in which the relative humidity of the atmosphere can be controlled during the measurement. X-ray powder diffraction studies show the product to be polymorphic Form A (see FIG. 1).
Form E of Fluvastatin sodium ((3R,5S)-enantiomer) is first exposed to an atmosphere having a relative humidity of 90% for about 4 hours and subsequently to an atmosphere of 20 to 55% for about 3 hours. This treatment leads to either Form B1 or Form B2 of the (3R,5S)-enantiomer with an estimated water content of 5 to 15%. The above treatment can be carried out in an X-ray diffractometer in which the relative humidity of the atmosphere can be controlled during the measurement. […]

[2] = biological target: T1, 3-hydroxy-3-methylglutaryl coenzyme A (HMG-CoA) (Homo sapiens, UniProt P04035); settings: O. Tempkin et al., Tetrahedron 1997, vol. 53, pages 10659-10670; cited from earlier work
T1 sequence (P04035 1-888): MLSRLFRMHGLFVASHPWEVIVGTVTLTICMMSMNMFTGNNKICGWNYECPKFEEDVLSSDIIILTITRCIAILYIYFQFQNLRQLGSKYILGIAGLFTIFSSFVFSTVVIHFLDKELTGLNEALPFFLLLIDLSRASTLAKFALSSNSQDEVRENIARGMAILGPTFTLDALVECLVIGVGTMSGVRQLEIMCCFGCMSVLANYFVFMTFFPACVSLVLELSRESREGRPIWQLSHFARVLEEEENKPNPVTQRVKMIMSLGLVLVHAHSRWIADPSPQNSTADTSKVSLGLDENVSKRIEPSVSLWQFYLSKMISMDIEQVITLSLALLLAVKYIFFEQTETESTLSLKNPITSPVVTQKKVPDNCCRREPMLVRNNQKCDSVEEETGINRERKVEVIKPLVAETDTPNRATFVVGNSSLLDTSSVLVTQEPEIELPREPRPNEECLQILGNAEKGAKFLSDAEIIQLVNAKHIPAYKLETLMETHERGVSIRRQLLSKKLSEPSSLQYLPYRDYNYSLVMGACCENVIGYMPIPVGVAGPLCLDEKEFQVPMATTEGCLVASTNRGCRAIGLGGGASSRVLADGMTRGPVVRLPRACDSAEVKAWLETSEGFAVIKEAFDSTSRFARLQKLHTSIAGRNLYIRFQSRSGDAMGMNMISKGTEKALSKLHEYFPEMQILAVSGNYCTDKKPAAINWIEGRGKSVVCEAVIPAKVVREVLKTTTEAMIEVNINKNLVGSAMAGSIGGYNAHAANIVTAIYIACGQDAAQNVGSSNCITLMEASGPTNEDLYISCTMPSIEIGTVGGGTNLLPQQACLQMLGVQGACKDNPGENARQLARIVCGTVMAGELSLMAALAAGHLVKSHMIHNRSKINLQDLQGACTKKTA

CC(C)n1c(/C=C/[C@@H](O)C[C@@H](O)CC(=O)[O-])c(-c2ccc(F)cc2)c2ccccc21.[Na+] (single isomer, unassigned) [Form D, (3R,5S)- or (3S,5R)-7-(3-(4-fluorophenyl)-1-(1-methylethyl)-1H-indol-2-yl)-3,5-dihydroxy-6-heptenoic acid monosodium salt]
estimated water content [1]: 30%

CC(C)n1c(/C=C/[C@@H](O)C[C@@H](O)CC(=O)[O-])c(-c2ccc(F)cc2)c2ccccc21.[Na+] (single isomer, unassigned; enantiomer 7) [(3R,5S)-enantiomer, 7-(3-(4-fluorophenyl)-1-(1-methylethyl)-1H-indol-2-yl)-3,5-dihydroxy-6-heptenoic acid monosodium salt]
biological potency among enantiomers [2]: biologically most potent enantiomer
